Where two headings read alike, the source gives them in different places.
Columns and labels:
[1] = target: T1, glucocorticoid receptor (Rattus norvegicus, UniProt P06536); experiment: Glucocorticoid receptor assay: inhibition of [3H]-dexamethasone binding, liver cytosol; conditions: for % Inhibition Glucocorticold Receptor E^−6 / inhibition at 1 µM / % Inhibition Glucocorticoid Receptor E^−6: E^−6; for inhibition at 1 µM: read-out: % Inhibition Glucocorticold Receptor E^−6; for % Inhibition Glucocorticold Receptor E^−8 / inhibition at 0.01 µM / % Inhibition Glucocorticoid Receptor E^−8: E^−8; for inhibition at 0.01 µM: read-out: % Inhibition Glucocorticold Receptor E^−8
T1 construct: from tissue; host or cells: liver cytosol of male Sprague-Dawley rats
T1 sequence (P06536 1-795): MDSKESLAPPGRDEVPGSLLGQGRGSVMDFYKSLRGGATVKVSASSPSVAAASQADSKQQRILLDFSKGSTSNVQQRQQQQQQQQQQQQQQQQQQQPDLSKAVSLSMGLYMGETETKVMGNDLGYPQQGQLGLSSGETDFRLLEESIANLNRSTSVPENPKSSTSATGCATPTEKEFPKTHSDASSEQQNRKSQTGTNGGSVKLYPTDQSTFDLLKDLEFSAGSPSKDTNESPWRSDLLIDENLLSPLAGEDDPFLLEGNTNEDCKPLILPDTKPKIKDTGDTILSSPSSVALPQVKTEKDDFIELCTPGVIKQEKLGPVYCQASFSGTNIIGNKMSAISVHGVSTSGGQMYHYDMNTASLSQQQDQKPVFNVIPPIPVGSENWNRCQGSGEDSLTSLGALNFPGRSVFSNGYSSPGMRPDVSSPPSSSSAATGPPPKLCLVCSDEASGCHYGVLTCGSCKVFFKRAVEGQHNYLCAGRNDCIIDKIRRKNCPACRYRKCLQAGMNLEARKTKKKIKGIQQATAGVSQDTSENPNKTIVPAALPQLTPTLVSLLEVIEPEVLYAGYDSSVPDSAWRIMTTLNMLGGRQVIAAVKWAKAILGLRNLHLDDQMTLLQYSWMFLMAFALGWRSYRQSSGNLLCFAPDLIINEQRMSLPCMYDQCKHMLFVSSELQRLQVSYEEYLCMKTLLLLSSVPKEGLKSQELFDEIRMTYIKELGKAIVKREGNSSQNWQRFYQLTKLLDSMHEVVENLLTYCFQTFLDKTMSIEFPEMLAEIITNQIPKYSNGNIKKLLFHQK
Experimental: The manner in which the percentage of inhibition is determined is described in “Other Tests; F-Glucocorticoid Receptor Assay”.
[6,7-^3H(N)]-Dexamethasone (39 Ci/mmol) was purchased from New England Nuclear (Lachine, Québec, Canada) while unlabeled dexametasone was obtained from Steraloids (Wilton, N.H.). All other chemicals were of analytical grade.
Stock solutions of the unlabeled steroids were kept at 4° C. in ethanol. The desired steroid solutions were then prepared by appropriate dilution in buffer B (10 mM Tris-HCl, 1.5 mM EDTA, 10 mM α-monothioglycerol, pH 7.4) containing 30% ethanol.
Male Sprague-Dawley rats weighing 200-300 g were obtained from Charles-River Inc. (St-Constant, Québec, Canada). The rats were killed by cervical dislocation and the liver were rapidly removed, dissected free from adhering tissue and frozen on dry-ice. Tissues were kept at −80° C. until use.
All procedures were performed at 4° C. Tissues were eminced and homogenized in 10 vol (w/v) of buffer A (25 mM Tris-HCl, 1.5 mM EDTA, 10 mM α-monothioglycerol, 10% glycerol, 10 mM sodium molybdate, pH 7.4) using a Polytron PT-10 homogenizer (Brinkmann Instruments, Canada) at a setting of 5 for two periods of 10 sec, with intervals of 10 sec for cooling. The homogenate was then centrifuged at 105,000×g for 90 min. The supernatant was used immediately for assay.
Glucocorticoid binding was measured using the dextran-coated charcoal adsorption technique. Incubations were performed at 0-4° C. for 16-18 h using 100 μl of cytosol, 100 μl of [^3H]-Dexamethasone (5 nM final) and 100 μl of unlabeled compounds at the indicated concentrations. Each concentration was done in triplicate. Assay was ended with 300 μl of DCC (2.5% Norit A and 0.25% Dextran T-70 in Buffer B). After 10 min of incubation, tubes were centrifuged at 2,000×g for 10 min. and decanted in vials with 6 ml of BCS liquid scintillation (New England Nuclear, Dupont). The radioactivity was measured in a Beckman counter at a counting efficiency of 35%.

[2] = In vivo assay of oral bioavailability (plasma AUC 0-7 h by LCMS/MS); parameters: species or system male Sprague Dawley rats; conditions: male, Sprague-Dawley [Crl:CD(SD)Br], 0.5 mg; Table 4′; oral, rat plasma
Experimental: In column 1, the oral bioavailability of preferred type 5 inhibitors, expressed in ng/mL.h, was determined as described below in “Other Tests, A-In Vivo Assays of Bioavailability of Human Type 5 17β-HSD Inhibitors”. Higher number are desirable. ND means that a determination was not done.
The measurements at various time intervals were for values greater than or equal to 1.0 ng/mL and less than or equal to 50 ng/mL.
Male Sprague-Dawley rats [Crl:CD(SD)Br] weighing 275-350 g were obtained from Charles-River Canada Inc. and housed 2 per cage during the acclimation period and individually during the study period. The animals were maintained under a regimen of 12 hours light: 12 hours dark (lights on at 08:00). Animals received certified Rodent feed (Lab Diet #5002, pellets) and tap water ad libitum. Rats were fasted (access to water only) starting on the evening prior to dosing.
Each compound to be tested was administered to three animals as a suspension in 0.4% methylcellulose by oral gavage at a dose of 0.5 mg/rat (1.0 ml/rat). Four to eight new compounds were tested each day and one group of animals received megestrol acetate (MGA) under the same conditions on each dosing day as a reference. […] Blood samples were immediately transferred into a refrigerated 0.75 ml Microtainer containing EDTA and kept in an ice-water bath until centrifugation at 3000 rpm for 10 minutes. Plasma separation was performed rapidly (less than 50 minutes) after blood collection. One aliquot of 0.25 ml of plasma was then transferred into a borosilicate tube (13×100) and was rapidly frozen on dry-ice. Plasma samples were kept at −80° C. until measurement of plasma concentration of the inhibitor(s) by LCMS/MS.
Aliquots of rat plasma (0.250 mL) were transferred to 13×100 mm borosilicate tubes. Water (1.0 mL) and internal standard solution (0.1 mL) were added to each sample and vortexed for 2 min. A mixture of N-butyl chloride and acetone (v:v, 7:3) (3 mL) was added to each sample and vortexed for 2 min. This step was repeated and the combined organic phases were evaporated to dryness under nitrogen in a Turbo Vap evaporator at 35° C. The residue was reconstituted with 1 mL of methanol and evaporated in a Turbo Vap evaporator at 35° C. The final extract was reconstituted into 0.1 mL of methanol/water (v:v, 75:25) and then transferred into a conical vial for injection into the mass spectrometer.
The assay procedure was performed by analyzing, in duplicate, rat plasma samples spiked at six different Type 5 inhibitor concentrations (1, 2, 5, 10, 20 and 50 ng/mL). The lower limit of quantitation (LOQ) was established at 1.0 ng/mL. Values lower than 1.0 ng/mL were expressed as below limit of quantification (BLQ). […]

Compound	inhibition at 1 µM ([1]; Table 4′)	inhibition at 0.01 µM ([1]; Table 4′)	other results
CC1(C)CC[C@@]2(CC[C@H]3[C@@H]4CCc5c(cc(Br)c(O)c5Br)[C@H]4CC[C@@]32C)OC1=O [EM-1382-CS]	–	–	% Inhibition Glucocorticold Receptor E^−6 ([1]; Table 4′): 4%; % Inhibition Glucocorticold Receptor E^−8 ([1]; Table 4′): 2%
CCS(=O)(=O)Oc1ccc2c(c1)CCC1C2CCC2(C)C1CCC21CCC(C)(C)C(=O)O1 (stereo not shown) [EM-1364-CS]	3%	0%	–
CC1(C)CCC2(CCC3C4CCc5cc(OS(C)(=O)=O)ccc5C4CCC32C)OC1=O (stereo not shown) [EM-1365-CS]	5%	0%	–
CC1(C)CC[C@@]2(CCC3C4CCc5cc(F)ccc5C4CC[C@@]32C)OC1=O (stereo partly shown) [EM-1157-CS]	0%	1%	AUC(0-t) [2]: 40 ± 7 ng·h/mL
CCC[C@]1(F)CC2C3C=CC4=CC(=O)CC[C@]4(C)C3CC[C@]2(C)C1=O (stereo partly shown) [EM-1183]	–	–	% Inhibition Glucocorticoid Receptor E^−6 [1]: 12%; % Inhibition Glucocorticoid Receptor E^−8 [1]: 0%
COCCOc1cc2c(cc1C(F)(F)F)[C@H]1CC[C@@]3(C)[C@@H](CC[C@@]34CCC(C)(C)C(=O)O4)[C@@H]1CC2 [EM-1438, 3-(2′-Methoxyethoxy)-2-trifluoromethyl-1,3,5(10)-estratrien-17(R)-spiro-2′-(5′,5′-dimethyl-6′-oxo)tetrahydropyran]	–	–	% Inhibition Glucocorticold Receptor E^−6 ([1]; Table 4′): 0%; % Inhibition Glucocorticold Receptor E^−8 ([1]; Table 4′): 1%
CCOc1ccc2c(c1)CCC1C2CC[C@@]2(C)C1CC[C@@]21CCC(C)(C)C(=O)O1 (stereo partly drawn) [EM-1369, 3-Ethoxy-1,3,5(10)-estratrien-17(R)-spiro-2′-(5′,5′-dimethyl-6′-oxo)-tetrahydropyran]	2%	1%	–
COc1cc2c(cc1C(F)(F)F)C1CCC3(C)C(CCC34CCC(C)(C)C(=O)O4)C1CC2 [EM-1409, 3-Methoxy-2-trifluoromethyl-1,3,5(10)-estratrien-17(R)-spiro-2′-(5′,5′-dimethyl-6′-oxo)tetrahydropyran]	–	–	AUC(0-t) [2]: 36 ± 13 ng·h/mL
COCCOc1ccc2c(c1)C(=O)CC1C2CCC2(C)C1CCC21CCC(C)(C)C(=O)O1 (stereo not shown) [EM-1408-CS]	0%	0%	–
CCCC(=O)O[C@]1(C)C(=O)CCC2C3C=C(C)C4=CC(=O)CC[C@]4(C)C3CC[C@@]21C (stereo partly shown) [EM-1078]	–	–	% Inhibition Glucocorticoid Receptor E^−6 [1]: 94%; % Inhibition Glucocorticoid Receptor E^−8 [1]: 20%
COc1ccc2c(c1)CCC1C2CCC2(C)C1CCC21CCC(C)(C)C(=O)O1 (stereo not shown) [EM-1370]	0%	3%	–
C[C@]12CCC(=O)C=C1C=C[C@@H]1[C@@H]2CC[C@]2(C)C(=O)C3(CC4CC4C3)C[C@@H]12 (stereo partly shown) [EM-1299, 4,6-Androstadien-3,17-dione-16-spirobicyclo[3′.1′.0′]-hexane]	–	–	% Inhibition Glucocorticoid Receptor E^−6 [1]: 0%; % Inhibition Glucocorticoid Receptor E^−8 [1]: 0%
CC1CCC2(CCC3C4CCc5ccccc5C4CCC32C)OC1=O (stereo not shown) [EM-1025]	0%	0%	–
CN(C)C(=O)c1ccc2c(c1)CCC1C2CCC2(C)C1CCC21CCC(C)(C)C(=O)O1 (stereo not shown) [EM-1403]	0%	0%	–
CSCCOc1ccc2c(c1)CCC1C2CCC2(C)C1CCC21CCCC(=O)O1 [CS-242, 3-Methylthioethyloxy-1,3,5(10)-estratrien-17(R)-spiro-2′-(6′-oxo) Tetrahydropyran]	0%	0%	–
COCCOc1ccc2c(c1)CCC1C2CCC2(C)C1CCC21CCC(C)(C)C(=O)O1 [EM-1368-CS, 3-Methoxyethoxy-1,3,5(10)-estratrien-17(R)-spiro-2′-(5′,5′-dimethyl-6′-oxo)-tetrahydropyran]	3%	3%	–
CC12CCC3c4ccc(F)cc4CCC3C1CCC21CCCC(=O)O1 (stereo not shown) [EM-1170-CS]	3%	4%	–
CC12C=CC(=O)C=C1C=CC1C2CCC2(C)C(=O)C3(CCCCC3)CC12 (stereo not shown) [CS-204]	–	–	% Inhibition Glucocorticoid Receptor E^−6 [1]: 0%; % Inhibition Glucocorticoid Receptor E^−8 [1]: 0%
COCCOc1cc2c(cc1C(=O)O)C1CCC3(C)C(CCC34CCC(C)(C)C(=O)O4)C1CC2 [EM-1405, 2-Carboxy-3-(2″-methoxyethyloxy)-1,3,5(10)-estratrien-17(R)-spiro-2′-(5′,5′-dimethyl-6′-oxo)tetrahydropyran]	0%	0%	–
CC(=O)O[C@]1(C)C(=O)CCC2C3C=C(C)C4=CC(=O)C=C[C@]4(C)C3CC[C@@]21C (stereo partly shown) [CS-237]	–	–	% Inhibition Glucocorticoid Receptor E^−6 [1]: 69%; % Inhibition Glucocorticoid Receptor E^−8 [1]: 7%
CC1(C)CC[C@@]2(CCC3C4CCc5cc6oncc6cc5C4CC[C@@]32C)OC1=O (stereo partly drawn) [EM-1407-CS, 1,3,5(10)-estratrien-(2,3-oximino)-17(R)-spiro-2′-(5′,5′-dimethyl-6′-oxo)tetrahydropyran]	0%	0%	–
COc1cc2c(cc1C)C1CCC3(C)C(CCC34CCC(C)(C)C(=O)O4)C1CC2 (stereo not shown) [EM-1412-CS]	2%	0%	–
CN1C(=O)C=C[C@]2(C)C3CC[C@@]4(C)C(CC[C@@]45CCCC(=O)O5)C3CCC12 (stereo partly shown) [EM-1122-CS]	–	–	inhibition at 1 µM ([1]; Table 5 column 15): 0%; inhibition at 0.01 µM ([1]; Table 5 column 15): 0%
CC1(C)CCC2(CCC3C4CCc5cc(O)c(C#N)cc5C4CCC32C)OC1=O (stereo not shown) [EM-01645]	–	–	AUC(0-t) [2]: 52 ± 3 ng·h/mL
CC1CCC2(CCC3C4CCc5cc(O)c([N+](=O)[O-])cc5C4CCC32C)OC1=O [EM-1126, 2-Nitro-1,3,5(10)-estratrien-3-ol-17(R)-spiro-2′-(5′-methyl-6′-oxo)tetrahydropyran]	–	–	% Inhibition Glucocorticold Receptor E^−6 ([1]; Table 4′): 0%; % Inhibition Glucocorticold Receptor E^−8 ([1]; Table 4′): 0%

Reference: patent US6541463B1, “Inhibitors of type 5 and type 3 17β-hydroxysteroid dehydrogenase and methods for their use” (Endorecherche, Inc., priority 1998, dated 2003)
